Experimental findings from patent publication US20100324285A1, “ANTIINFLAMMATORY AGENT COMPRISING 2-AMINOPHENOL OR DERIVATIVE THEREOF AS ACTIVE INGREDIENT” (priority 2006, published 2010) are described below.

The subject of test [1] is Mouse melanoma cell line B16. Briefly: Melanin synthesis in B16 cells. Format: cell-based. The settings on record: for Amount of melanin (%): 5 days, per mg protein versus control; for inhibiting effect on melanin production in combinational use: used with 2-aminophenoxsazine-3-one. Here is the method:
As control, a system with no test sample was provided. […] The amount of protein was measured by conventional Bradfordmethod and the amount of melanin per 1 mg of protein was calculated. The amount of melanin (%) was calculated according to Formula 4, and the living cell rate (%) was calculated according to Formula 5.
As control, a system with no test sample was provided. […] The amount of protein was measured by conventional Bradford method and the amount of melanin per 1 mg of protein was calculated. The amount of melanin (%) was calculated according to Formula 4.

In test [2] the test system is RAW264.7 cells. Description: Macrophage growth, living cell count. The test is classed as cell-based, mouse. To be noted: 2 days, relative level versus control. The source says:
(§1) RAW264.7 cells, a murine macrophage cell strain, were suspended in PRMI1640 medium supplied with 10% (v/v) fetal calf serum (hereinafter abbreviated as “FCS”) to give a cell suspension with a cell concentration of 1×10^6 cells/ml. […] The experimental system without the test samples described above was set as control. […] NO production, PGE2 production and macrophage growth are indicated as relative levels versus controls.

The test system of test [3] is RAW264.7 cells. Briefly: NO production by macrophage RAW264.7, Griess method. The test is classed as cell-based, mouse. To be noted: LPS + IFN-γ, 2 days, relative level versus control. The source says:
As macrophage cells, RAW264.7 cell strain from mouse or macrophage cells obtained from laboratory animals such as mouse can be used. The amount of produced NO can be measured by conventional Griess method. […] RAW264.7 cells, a murine macrophage cell strain, were suspended in PRMI1640 medium supplied with 10% (v/v) fetal calf serum (hereinafter abbreviated as “FCS”) to give a cell suspension with a cell concentration of 1×10^6 cells/ml. […] The experimental system without the test samples described above was set as control. […] NO production, PGE2 production and macrophage growth are indicated as relative levels versus controls.

Test [4] relates to RAW264.7 cells. Briefly: PGE2 production by macrophage RAW264.7, PGE2-EIA kit. The settings on record: LPS + IFN-γ, 2 days, relative level versus control. The test is classed as cell-based, mouse.
Description: as §1

Molecules are shown by their SMILES.

For `O=C1O[C@H]([C@@H](O)CO)C(O)=C1O[C@H]1O[C@H](CO)[C@@H](O)[C@H](O)[C@H]1O` [Ascorbic acid 2-glucoside, ascorbic acid 2-glucoside], the “Amount of melanin (%)” value was found to be 80% in test [1] (2 mM), 68% in test [1] (4 mM) and 63% in test [1] (8 mM). In addition, in test [1], the “inhibiting effect on melanin production in combinational use” value was “synergistically exert inhibiting effect on melanin production”.
On to `COc1ccc2c(c1)c(CC(=O)O)c(C)n2C(=O)c1ccc(Cl)cc1` [IN, indomethacin], for which the “Macrophage growth (%)” value in the test with RAW264.7 cells [2] (0.16 μM) worked out at 102%; in the test on RAW264.7 cells [2] (0.31 μM) it was 104%; with RAW264.7 cells [2] (0.63 μM), 108%; in the test on RAW264.7 cells [2] (1.3 μM), 117%; in the test with RAW264.7 cells [2] (2.5 μM) it was 120%; in the test on RAW264.7 cells [2] (5.0 μM) it was 122%. Besides, the “Macrophage growth (%)” value with RAW264.7 cells [2] (10 μM) is listed as 120%. Further, the “NO production (%)” value in the test with RAW264.7 cells [3] (0.16 μM) was 86%; in the test with RAW264.7 cells [3] (0.31 μM), 84%; in the test on RAW264.7 cells [3] (0.63 μM), 81%; in the test with RAW264.7 cells [3] (1.3 μM), 82%; in the test with RAW264.7 cells [3] (2.5 μM), 80%; with RAW264.7 cells [3] (5.0 μM), 80%. Moreover, the “NO production (%)” value with RAW264.7 cells [3] (10 μM) is reported as 78%. For the same compound, the “PGE2 production (%)” value with RAW264.7 cells [4] (0.16 μM) amounted to 4%; in the test on RAW264.7 cells [4] (0.31 μM), 4%; with RAW264.7 cells [4] (0.63 μM), 4%; in the test on RAW264.7 cells [4] (1.3 μM), 3%; in the test on RAW264.7 cells [4] (2.5 μM), 1%; in the test on RAW264.7 cells [4] (5.0 μM) it was 2%. The “PGE2 production (%)” value in the test on RAW264.7 cells [4] (10 μM) amounted to 1%.
Regarding `CS(=O)(=O)Nc1ccc([N+](=O)[O-])cc1OC1CCCCC1` [NS], the “Macrophage growth (%)” value came out at 95% with RAW264.7 cells [2] (0.16 μM); 97% with RAW264.7 cells [2] (0.31 μM); 99% with RAW264.7 cells [2] (0.63 μM); 102% with RAW264.7 cells [2] (1.3 μM); 100% in the test with RAW264.7 cells [2] (2.5 μM); 105% in the test on RAW264.7 cells [2] (5.0 μM). Further, the “Macrophage growth (%)” value in the test on RAW264.7 cells [2] (10 μM) is listed as 110%. Also, the “NO production (%)” value was found to be 90% with RAW264.7 cells [3] (0.16 μM); 89% in the test on RAW264.7 cells [3] (0.31 μM); 87% in the test with RAW264.7 cells [3] (0.63 μM); 85% in the test on RAW264.7 cells [3] (1.3 μM); 85% with RAW264.7 cells [3] (2.5 μM); 88% in the test with RAW264.7 cells [3] (5.0 μM). Moreover, the “NO production (%)” value in the test on RAW264.7 cells [3] (10 μM) is 84%. For the same compound, the “PGE2 production (%)” value came to 4% in the test on RAW264.7 cells [4] (0.16 μM); 4% in the test on RAW264.7 cells [4] (0.31 μM); 2% in the test with RAW264.7 cells [4] (0.63 μM); 1% in the test with RAW264.7 cells [4] (1.3 μM); 1% in the test on RAW264.7 cells [4] (2.5 μM); 5% in the test with RAW264.7 cells [4] (5.0 μM). Further, the “PGE2 production (%)” value with RAW264.7 cells [4] (10 μM) is given as 2%.
In the case of `OC[C@H]1O[C@H](O[C@H]2O[C@H](CO)[C@@H](O)[C@H](O)[C@H]2O)[C@H](O)[C@@H](O)[C@@H]1O` [Trehalose, trehalose], the “Amount of melanin (%)” value in test [1] (20 mM) is 82%; in test [1] (40 mM), 75%; in test [1] (80 mM), 66%. Further, the “inhibiting effect on melanin production in combinational use” value in test [1] is listed as “synergistically exert inhibiting effect on melanin production”.
